We go through 13 compounds from ChEMBL document CHEMBL4665855, “Discovery of DS34942424: An orally potent analgesic without mu opioid receptor agonist activity” (Bioorg Med Chem, 2020).

A short description of data set [1]: 1-Octanol-PBS buffer distribution coefficient, log D of compound at pH 7.4. It counts as physicochemical.
Data set [2] in a line: Protective index, ratio of ID50 for locomotory activity to ED50 for antinociceptive activity in orally dosed ddY mouse. Type of data set: toxicity, organism-based. The conditions noted are these: in vivo, po.
Data set [3] is described as follows: Cmax in ddY mouse at 10 mg/kg, po by LC-MS/MS method. More on the design: route oral, dose 10 mg/kg. It counts as ADME, organism-based. The note with it: in vivo.
Data set [4] can be described thus: Effect on spontaneous locomotory activity in orally dosed ddY mouse measured for 1 hr. It counts as ADME, organism-based. The note with it: in vivo, po.
Data set [5] in a line: AUC in ddY mouse at 10 mg/kg, po by LC-MS/MS method. Type of data set: ADME, organism-based. Also noted: dose 10 mg/kg. The note with it: in vivo.
A short description of data set [6]: Metabolic stability in CD1 mouse liver microsomes assessed as compound remaining measured after 0.5 hrs by LC/MS-MS analysis. It counts as ADME, Microsome. The note with it: read-out: Stabilty.
Data set [7] deals with T1, hERG (KCNH2) (Homo sapiens, UniProt Q12809). As to the kind of experiment: Inhibition of human ERG expressed in HEK293 cells at 10 uM at - 80 mV holding potential by whole cell patch clamp assay relative to control. It counts as cell-based. The conditions noted are these: HEK293 cells expressing human ERG.
T1 sequence (Q12809 whole entry): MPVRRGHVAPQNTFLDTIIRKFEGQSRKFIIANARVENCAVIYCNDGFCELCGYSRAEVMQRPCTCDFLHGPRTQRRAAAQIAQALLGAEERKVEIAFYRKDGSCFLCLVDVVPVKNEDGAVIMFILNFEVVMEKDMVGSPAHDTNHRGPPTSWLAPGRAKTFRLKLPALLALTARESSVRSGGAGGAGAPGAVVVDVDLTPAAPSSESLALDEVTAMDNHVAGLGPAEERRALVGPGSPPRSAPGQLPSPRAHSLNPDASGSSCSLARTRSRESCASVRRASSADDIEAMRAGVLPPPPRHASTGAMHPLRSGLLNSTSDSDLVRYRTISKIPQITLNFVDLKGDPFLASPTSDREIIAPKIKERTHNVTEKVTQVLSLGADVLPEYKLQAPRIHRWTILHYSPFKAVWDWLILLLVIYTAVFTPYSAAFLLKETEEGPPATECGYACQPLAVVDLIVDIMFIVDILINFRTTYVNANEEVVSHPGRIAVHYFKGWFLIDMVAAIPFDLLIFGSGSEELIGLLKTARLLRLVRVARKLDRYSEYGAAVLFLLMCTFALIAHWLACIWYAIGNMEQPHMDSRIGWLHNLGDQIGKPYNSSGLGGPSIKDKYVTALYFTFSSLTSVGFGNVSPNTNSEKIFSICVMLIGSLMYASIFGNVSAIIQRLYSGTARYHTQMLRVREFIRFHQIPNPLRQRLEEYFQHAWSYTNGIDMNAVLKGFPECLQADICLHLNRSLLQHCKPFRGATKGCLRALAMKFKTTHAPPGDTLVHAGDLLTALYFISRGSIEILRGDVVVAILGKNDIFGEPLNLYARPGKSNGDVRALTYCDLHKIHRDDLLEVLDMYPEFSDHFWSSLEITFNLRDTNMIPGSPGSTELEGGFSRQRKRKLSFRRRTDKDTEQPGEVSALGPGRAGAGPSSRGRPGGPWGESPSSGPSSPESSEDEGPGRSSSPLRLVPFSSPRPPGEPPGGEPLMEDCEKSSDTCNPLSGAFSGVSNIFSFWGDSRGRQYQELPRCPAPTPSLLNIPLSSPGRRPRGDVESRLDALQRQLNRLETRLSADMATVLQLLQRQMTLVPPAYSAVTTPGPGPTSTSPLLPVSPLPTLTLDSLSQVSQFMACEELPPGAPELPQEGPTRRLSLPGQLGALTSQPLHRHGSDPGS
Data set [8] relates to Mus musculus. Briefly: Antinociceptive activity in ddY mouse model assessed as inhibition of acetic acid-induced writhes at 30 mg/kg, po pretreated for 30 mins followed by acetic acid challenge and measured for 25 mins post acetic acid challenge. Type of data set: functional. The conditions noted are these: 55 min.
Data set [9] relates to Mus musculus. As to the kind of experiment: Antinociceptive activity in orally dosed ddY mouse model assessed as inhibition of acetic acid-induced writhes pretreated for 30 mins followed by acetic acid challenge and measured for 25 mins post acetic acid challenge. It counts as functional. The conditions noted are these: po, 55 min.
The target in data set [10] is T1, hERG (KCNH2). As to the kind of experiment: Inhibition of human ERG expressed in HEK293 cells at 30 uM at - 80 mV holding potential by whole cell patch clamp assay relative to control. It counts as cell-based. The note with it: HEK293 cells expressing human ERG.
In data set [11] the test system is Mus musculus. As to the kind of experiment: Analgesic activity in formalin-induced orally dosed ddY mouse model of hyperalgesia assessed as time spent in paw licking during acute phase pretreated for 30 mins followed by formalin challenge and measured for 10 mins. Type of data set: functional. The note with it: po, 0.5 h.
Data set [12] in a line: Half life in ddY mouse at 10 mg/kg, po by LC-MS/MS method. It counts as ADME, organism-based. The conditions noted are these: in vivo.
In data set [13] the target is T2, Mu-type opioid receptor (Homo sapiens, UniProt P35372). Briefly: Displacement of [3H]diprenorphine from human MOR incubated for 1 hr.
T2 sequence (P35372 whole entry): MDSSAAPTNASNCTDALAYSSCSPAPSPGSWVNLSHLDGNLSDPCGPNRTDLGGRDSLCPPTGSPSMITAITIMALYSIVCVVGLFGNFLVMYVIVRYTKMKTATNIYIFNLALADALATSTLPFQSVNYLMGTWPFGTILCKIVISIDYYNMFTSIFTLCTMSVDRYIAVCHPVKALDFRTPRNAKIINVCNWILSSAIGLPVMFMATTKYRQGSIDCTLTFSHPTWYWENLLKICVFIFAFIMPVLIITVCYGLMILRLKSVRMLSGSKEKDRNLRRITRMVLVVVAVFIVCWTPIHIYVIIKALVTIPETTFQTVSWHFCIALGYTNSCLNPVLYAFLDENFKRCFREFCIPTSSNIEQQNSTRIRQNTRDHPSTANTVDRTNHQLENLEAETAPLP
Data set [14] has as its target T2, Mu-type opioid receptor. As to the kind of experiment: Agonist activity at human MOR expressed in CHOK1 cells assessed as inhibition of forskolin-stimulated cAMP accumulation by FRET assay relative to DAMGO. The conditions noted are these: CHO-K1, human. Type of data set: cell-based.

Compound `CN1C(=O)c2ccccc2CN2CC[C@H]1C2` returned a logD in [1] of 0.3. Moreover, the selectivity ratio in [2] is more than 3.4. Also, in data set [3], the highest level (Cmax) was 3740 nM. In data set [4], this compound had an ID50 of more than 85 mg/kg. For the same compound, the AUC in data set [5] amounted to 7.79 µM·h. In addition, the remaining at 0.5 h in [6] worked out at 82%. For the same compound, the inhibition at 10 µM against hERG (KCNH2) [7] was found to be 5%. Besides, the inhibition in vivo at 30 mg/kg in the data set on Mus musculus [8] was 97%. Besides, the ED50 in the data set on Mus musculus [9] is 25 mg/kg.

The compound `CN1C(=O)c2ccccc2CN2CCC[C@H]1C2` showed a logD in data set [1] of 0.3. Besides, the concentration in data set [3] peaked (Cmax) at 1970 nM. Moreover, the AUC in data set [5] was 1.97 µM·h. Further, the remaining at 0.5 h in data set [6] is 62%. Besides, the inhibition at 10 µM against hERG (KCNH2) [7] stood at 5%. For the same compound, the inhibition in vivo at 30 mg/kg with Mus musculus [8] was determined as 77%. Besides, the ED50 in the data set with Mus musculus [9] was 23 mg/kg.

Take `C/C=C1/CN2CC[C@H]1C(=O)c1[nH]c3ccccc3c1C2`: in data set [2], the selectivity ratio came to 2.2. This compound displayed an ID50 in data set [4] of 69 mg/kg. In the data set on Mus musculus [9], the ED50 is 32 mg/kg.

`CCN1C(=O)c2ccccc2CN2CC[C@H]1C2` came in with a logD in [1] of 0.4. Besides, the remaining at 0.5 h in data set [6] worked out at 80%. For the same compound, on hERG (KCNH2) [7], the inhibition at 10 µM is 6%. For the same compound, in the data set on Mus musculus [8], the inhibition in vivo at 30 mg/kg stood at 45%.

Compound `CN1C(=O)c2c(F)cccc2CN2C[C@@H]1C1(CC1)C2` showed a logD in data set [1] of 1. Besides, the inhibition at 30 µM against hERG (KCNH2) [10] was 0%. The remaining at 0.5 h in data set [6] was found to be 79%. The ED50 in the data set on Mus musculus [9] came to 35 mg/kg.

In data set [1], `CN1C(=O)c2cc(F)ccc2CN2C[C@@H]1C1(CC1)C2` had a logD of 0.9. In addition, the inhibition at 30 µM against hERG (KCNH2) [10] came out at 14%. Also, in data set [6], the remaining at 0.5 h amounted to 81%. Further, the ED50 in the data set with Mus musculus [9] turned out to be 36 mg/kg.

Compound `O=C1c2ccccc2CN2CCCN1CC2` registered a log distribution coefficient (logD) in data set [1] of 0.6. The remaining at 0.5 h in data set [6] is 78%. In addition, the inhibition at 10 µM against hERG (KCNH2) [7] was -1%. In the data set with Mus musculus [8], the inhibition in vivo at 30 mg/kg is 24%.

`CN1C(=O)c2ccccc2CN2C[C@@H]1C1(CC1)C2` had a logD in [1] of 0.5. In addition, the Cmax in data set [3] turned out to be 5240 nM. Moreover, the inhibition at 30 µM against hERG (KCNH2) [10] came to 15%. Also, in data set [5], the AUC is 5.24 µM·h. Also, the remaining at 0.5 h in data set [6] is 81%. Further, the inhibition at 10 µM on hERG (KCNH2) [7] is 14%. In addition, the inhibition in vivo at 30 mg/kg with Mus musculus [8] amounted to 84%. In addition, in the data set on Mus musculus [9], the ED50 worked out at 15 mg/kg.

In the case of `CN1C(=O)c2[nH]c3ccccc3c2CN2CC[C@H]1C2`, the selectivity ratio in data set [2] came to 2.1. Also, the ID50 in [4] came out at 19 mg/kg. The ED50 in the data set with Mus musculus [9] is 8.7 mg/kg.

In the case of `CN1C(=O)c2ccc(F)cc2CN2C[C@@H]1C1(CC1)C2`, the values for the ED50 with Mus musculus [11] and in the data set on Mus musculus [9] were 16 mg/kg and 6.4 mg/kg, respectively. This compound also had a half-life in data set [12] of 1.9 h. The compound also came in with a logD in [1] of 0.9. Besides, the selectivity ratio in data set [2] turned out to be 10.3. Moreover, in [3], the highest level (Cmax) was 1470 nM. Moreover, the inhibition at 30 µM against hERG (KCNH2) [10] turned out to be 2%. The ID50 in [4] turned out to be 66 mg/kg. The compound also displayed an AUC in data set [5] of 1.74 µM·h. For the same compound, the EC50 at Mu-type opioid receptor [13] is more than 100 µM. Besides, in data set [6], the remaining at 0.5 h stood at 83%. In addition, on Mu-type opioid receptor [14], the Emax was 18%.

In data set [1], `CC1c2ccccc2C(=O)N(C)[C@H]2CCN1C2` (some centres undefined) returned a logD of 0.3. Further, the remaining at 0.5 h in data set [6] worked out at 81%. For the same compound, the inhibition at 10 µM against hERG (KCNH2) [7] is 6%. Further, the inhibition in vivo at 30 mg/kg in the data set with Mus musculus [8] was 31%.

For `CC12CCN(CC1)Cc1c([nH]c3ccccc13)C2=O`, in data set [2], the selectivity ratio stood at 2.1. The compound also gave an ID50 in [4] of 16 mg/kg. Further, the ED50 in the data set with Mus musculus [9] turned out to be 7.8 mg/kg.

The compound `CN1C(=O)c2cccc(F)c2CN2C[C@@H]1C1(CC1)C2` gave a logD in [1] of 0.9. Also, the inhibition at 30 µM on hERG (KCNH2) [10] was 0%. Besides, the remaining at 0.5 h in data set [6] was found to be 79%. In addition, the ED50 with Mus musculus [9] was 14 mg/kg.
